Laboratory results from patent US20210302459A1, “Biosensor Storage Methods” (Queen's University at Kingston, priority 2020, published 2021).

How the values were obtained:
Format in all cases: binding
[1] = molecular target: T1, TLR2/6 biosensor (TLR2 and TLR6 proteins immobilized on gold electrode) (Mus musculus, UniProt Q9EPW9+Q9QUN7); assay: Cyclic voltammetry peak current of TLR2/6 biosensors after exposure to analyte; conditions: concentration increased 0.1 to 50.0 μM; reduced from 147 μA
T1 construct: Fc (fusion partner, Fc chimera); purchased R&D Systems Inc. 1530-TR-050 (TLR2); 1533-TR-050 (TLR6)
T1 sequence (Q9QUN7 with tags, fused parts or gaps limits assumed): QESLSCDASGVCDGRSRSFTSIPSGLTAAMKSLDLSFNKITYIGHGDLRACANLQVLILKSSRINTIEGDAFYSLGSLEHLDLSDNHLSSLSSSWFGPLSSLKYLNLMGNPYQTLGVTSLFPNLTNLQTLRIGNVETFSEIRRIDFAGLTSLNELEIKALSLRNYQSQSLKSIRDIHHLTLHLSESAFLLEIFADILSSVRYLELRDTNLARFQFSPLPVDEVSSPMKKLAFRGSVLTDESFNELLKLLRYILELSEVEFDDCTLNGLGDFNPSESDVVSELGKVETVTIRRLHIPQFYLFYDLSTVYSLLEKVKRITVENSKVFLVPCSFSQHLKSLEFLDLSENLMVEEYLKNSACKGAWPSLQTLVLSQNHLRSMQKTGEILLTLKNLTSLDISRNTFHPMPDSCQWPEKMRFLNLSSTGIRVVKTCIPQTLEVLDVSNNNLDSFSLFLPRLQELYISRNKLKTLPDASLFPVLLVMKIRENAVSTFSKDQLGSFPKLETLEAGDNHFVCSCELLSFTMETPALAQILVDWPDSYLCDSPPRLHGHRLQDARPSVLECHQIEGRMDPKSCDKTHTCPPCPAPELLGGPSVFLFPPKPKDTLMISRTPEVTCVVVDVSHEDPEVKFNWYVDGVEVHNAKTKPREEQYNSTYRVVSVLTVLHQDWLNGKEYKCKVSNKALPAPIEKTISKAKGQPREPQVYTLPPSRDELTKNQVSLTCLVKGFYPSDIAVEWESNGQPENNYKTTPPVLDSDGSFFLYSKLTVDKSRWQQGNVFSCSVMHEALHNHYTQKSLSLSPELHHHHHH
T1 sequence (Q9EPW9 with tags, fused parts or gaps limits assumed): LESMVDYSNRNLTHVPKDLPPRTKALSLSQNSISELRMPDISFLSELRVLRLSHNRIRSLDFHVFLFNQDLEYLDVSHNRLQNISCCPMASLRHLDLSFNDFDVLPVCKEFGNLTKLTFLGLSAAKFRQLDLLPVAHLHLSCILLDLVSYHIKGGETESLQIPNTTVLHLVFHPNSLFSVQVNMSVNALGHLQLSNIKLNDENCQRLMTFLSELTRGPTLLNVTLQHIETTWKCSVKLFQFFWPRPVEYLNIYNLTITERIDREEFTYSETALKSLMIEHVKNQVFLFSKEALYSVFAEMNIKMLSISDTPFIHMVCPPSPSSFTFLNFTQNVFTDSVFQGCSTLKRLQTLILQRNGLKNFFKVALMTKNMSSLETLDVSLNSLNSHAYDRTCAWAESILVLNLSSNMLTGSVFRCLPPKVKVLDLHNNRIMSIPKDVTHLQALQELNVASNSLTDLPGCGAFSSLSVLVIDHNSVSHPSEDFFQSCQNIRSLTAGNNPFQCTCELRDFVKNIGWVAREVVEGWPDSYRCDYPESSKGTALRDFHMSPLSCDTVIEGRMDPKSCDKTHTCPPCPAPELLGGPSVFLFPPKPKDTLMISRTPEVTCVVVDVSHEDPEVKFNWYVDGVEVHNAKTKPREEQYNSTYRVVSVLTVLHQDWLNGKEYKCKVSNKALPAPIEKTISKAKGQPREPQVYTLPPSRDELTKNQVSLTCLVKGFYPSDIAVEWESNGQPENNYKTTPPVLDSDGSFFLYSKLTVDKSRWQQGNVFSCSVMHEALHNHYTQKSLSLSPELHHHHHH
Procedure: As shown in FIGS. 1A-B, a TLR2/6 biosensor was prepared following the steps as shown. Specifically, TLR biosensors were prepared using DropSens gold screen printed electrode (SPE). 1-lipoic acid n-hydroxysuccinimide ester (LPA, a linker molecule) was synthesized following a published protocol (see Howarth, M., et al., Nat. Methods, 2008, 5, 397-399). LPA solution at a concentration of 2 mM was prepared using ethanol/MQ water (volume ratio of 1:1). A clean plastic petri dish was lined with a filter paper which was dampened with a 1:1 solution of ethanol and MQ. The DropSens SPE was placed on the filter paper and 50 μL of the 2 mM LPA solution was dropped onto the working electrode. The petri dish was sealed with parafilm and placed in a fridge at 277 K for 24 hours. An additional 50 μL of the 2 mM LPA solution was cast onto a working electrode and returned to the fridge for another 24 hours. […]
All electrochemical measurements were preformed in faraday cages using DRP-CAC adapters for SPEs being measured. […] The experimental EIS curves were evaluated to determine the film resistance using ZSimpWin 2.0 software (available from AMETEK® Scientific Instruments of Berwyn, Pa., USA). […]
(§1) Sensor responses to different concentrations of Pam2CSK4, a gram-positive PAMP, were evaluated. […] Reduction in measured current correlated to the binding of Pam2CSK4 onto the TLR2/6 biosensor. […]

[2] = molecular target: T1, TLR2/6 biosensor (TLR2 and TLR6 proteins immobilized on gold electrode); assay: Response of TLR2/6 biosensors to Pam2CSK4 after 2 weeks storage under different conditions; conditions: for detection response / activity in comparison to control: 50 μM Pam2CSK4; for activity in comparison to control: −33° C.
Procedure: Referring to FIGS. 2A-C, plots are shown that provide detection responses obtained from TLR2/6 biosensors in the presence of Pam2CSK4 with no storage, and with storage under different conditions for 2 weeks (see Example 5 for details). Columns labelled ‘A’ in FIGS. 2A-C correspond to detection responses of fresh (i.e., not stored) TLR2/6 biosensors to different concentrations of Pam2CSK4. Responses of TLR2/TLR6 biosensors stored in PBS buffer at −80° C. (see columns labelled ‘E’ in FIGS. 2A-2C) for two weeks to Pam2CSK4 were equivalent to the responses from freshly prepared biosensors. That is, there was no significant loss of performance under storage condition E (see Table 1).
Biosensors as described herein (e.g., TLR2/6 proteins immobilized onto conductive surfaces) were stored under varying conditions (see Table 1) for two weeks and then challenged by the PAMP (Pam2CSK4). As shown in FIGS. 2A-2C, a comparison was done of the responses from freshly prepared and stored biosensors were compared. Calibration curves including more concentration points are shown in FIGS. 6A-6D, where ΔRCT(%) is a normalized detection signal. ΔRCT(%)=[RCT (after exp.)−RCT (before exp.)]/RCT (before exp.), where “before exp.” refers to before exposure to analyte, and “after exp.” refers to after exposure to the analyte.
Three storage temperatures were selected, 4° C., −33° C., and −80° C. Ionic salt solutions are commonly used to maintain protein folding and stability, thus, to preserve the biosensor during storage, varying buffer solutions were used.
Batch B biosensors were stored in PBS buffer of pH˜7.4 at 4° C.
The storage conditions for Batch C was −33° C. in 50% v/v PBS buffer at pH ˜7.4 and glycerol. The storage conditions for Batch D was −33° C. in 50% v/v Tris buffer pH ˜7.7 and glycerol. […] However, the activity was reduced down to 30% in comparison to control.
The storage conditions for Batch E was −80° C. in PBS buffer at pH ˜7.4.
Batch F biosensors were stored at −80° C. in the absence of any buffer solution.
Batch G biosensors were disposed in a buffer solution that included amino acids. Specifically, Batch G buffer solution included 50 mM L-Arg, 50 mM L-Glu, 1 M NaCl and 200 mM imidazole in 50 mM Tris-HCl (pH˜8.0). The solution surrounded each biosensor in Batch G and they were kept at 4° C.
Different concentrations of Pam2CSK4 were used to trigger the responses. These concentrations were 0.1 μM for FIG. 2A; 1.0 μM for FIG. 2B; and 50 μM for FIG. 2C.

[3] = molecular target: T1, TLR2/6 biosensor (TLR2 and TLR6 proteins immobilized on gold electrode); assay: Electrochemical impedance response (ΔRct %) of freshly prepared TLR2/6 biosensors to isolated PAMPs
Procedure: As shown in FIGS. 1A-B, a TLR2/6 biosensor was prepared following the steps as shown. Specifically, TLR biosensors were prepared using DropSens gold screen printed electrode (SPE). 1-lipoic acid n-hydroxysuccinimide ester (LPA, a linker molecule) was synthesized following a published protocol (see Howarth, M., et al., Nat. Methods, 2008, 5, 397-399). LPA solution at a concentration of 2 mM was prepared using ethanol/MQ water (volume ratio of 1:1). A clean plastic petri dish was lined with a filter paper which was dampened with a 1:1 solution of ethanol and MQ. The DropSens SPE was placed on the filter paper and 50 μL of the 2 mM LPA solution was dropped onto the working electrode. The petri dish was sealed with parafilm and placed in a fridge at 277 K for 24 hours. An additional 50 μL of the 2 mM LPA solution was cast onto a working electrode and returned to the fridge for another 24 hours. After a total of 48 hours the SPE was rinsed thoroughly with ethanol and MQ water before blown dry with nitrogen. TLR2 and TLR6 proteins were individually reconstituted into solutions at a concentration of 200 μg/mL using PBS buffer (pH ˜7.4). The TLR2/6 protein mixture was prepared by mixing 100 μL of TLR2 and 100 μL of TLR6 and mixing on a vortex machine for 30 seconds in a 1.5 mL microcentrifuge tube. The SPEs were placed in petri dishes with filter papers dampened with PBS buffer (pH ˜7.4). A small drop of TLR 2/6 mixture (5 μL) was dispensed onto each working electrode and then the petri dishes were sealed with PARAFILM™ and left in the fridge at 277 K for 72 hours. The electrodes were rinsed with MQ water after the immersion and blown dry with nitrogen. An ethanolamine-tris buffer solution was prepared by dissolving 1.2 g of ethanolamine, 0.121 g tris base in 20 mL of MQ water. The pH of the solution was adjusted to 8.4 using concentrated hydrochloric acid. After the step of immobilizing TLR2/6 proteins, electrode surfaces were immersed in ethanolamine solutions for 1 hour to deactivate unreacted ester groups on the LPA monolayer.
All electrochemical measurements were preformed in faraday cages using DRP-CAC adapters for SPEs being measured. Cyclic voltammetry (CV), square wave voltammetry (SWV), and electrochemical impedance spectroscopy (EIS) measurements were completed using CHI6055E potentiostats (CH Instruments of Austin, Tex., USA). […] The experimental EIS curves were evaluated to determine the film resistance using ZSimpWin 2.0 software (available from AMETEK® Scientific Instruments of Berwyn, Pa., USA). […]
as §1

| Substance | peak current (cyclic voltammogram) after exposure [1] | detection response ([2]; freshly prepared biosensors (column A, no storage)) | detection response ([2]; storage condition G: 2 weeks, 4° C., amino acid buffer pH ~8.0) | response after storage ([2]; Batch B: 2 weeks, PBS buffer pH ~7.4, 4° C.) | activity in comparison to control ([2]; Batch C: 2 weeks, 50% v/v PBS/glycerol) | activity in comparison to control ([2]; Batch D: 2 weeks, 50% v/v Tris/glycerol) | response after storage versus control biosensor ([2]; Batch E: 2 weeks, −80° C., PBS buffer pH ~7.4, all concentrations) | response after storage ([2]; Batch F: 2 weeks, −80° C., no buffer solution) | electrochemical response (ΔRct %) ([3]; 0.1 μM analyte, fresh biosensors, 4 replicates) | electrochemical response (ΔRct %) ([3]; 1 μM analyte, fresh biosensors, 4 replicates) | electrochemical response (ΔRct %) ([3]; largest concentration, FIG. 4 comparison) | electrochemical response (ΔRct %) ([3]; LPS from 0.1 to 63.6 μg/ml, any concentration) |
| --- | --- | --- | --- | --- | --- | --- | --- | --- | --- | --- | --- | --- |
| Pam2CSK4 | 96 μA | 167±29% | 360±24% | no significant responses | 30% | 30% | within error of the control biosensor | lost most of their response | 24±12% | 58±13% | ~160% |  |
| lipopolysaccharide [Salmonella LPS] |  |  |  |  |  |  |  |  |  |  |  | ≤ 40% |
